Test [1] addresses T1, Alpha-1A adrenergic receptor (Homo sapiens, UniProt P35348).
T1 sequence (P35348 whole entry): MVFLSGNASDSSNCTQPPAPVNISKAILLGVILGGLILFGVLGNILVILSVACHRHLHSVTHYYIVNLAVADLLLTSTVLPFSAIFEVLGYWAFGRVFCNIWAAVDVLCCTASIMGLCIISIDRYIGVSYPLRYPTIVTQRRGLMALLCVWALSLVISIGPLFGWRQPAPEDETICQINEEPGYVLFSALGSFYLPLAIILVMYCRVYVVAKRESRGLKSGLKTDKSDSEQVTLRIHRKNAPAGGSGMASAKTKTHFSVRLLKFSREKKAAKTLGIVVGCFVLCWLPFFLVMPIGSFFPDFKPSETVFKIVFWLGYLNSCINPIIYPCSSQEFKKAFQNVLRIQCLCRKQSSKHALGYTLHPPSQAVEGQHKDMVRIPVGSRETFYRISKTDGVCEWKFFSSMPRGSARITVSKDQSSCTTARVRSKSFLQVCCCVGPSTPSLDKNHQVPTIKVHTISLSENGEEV
It is filed as functional, cell-based.

Test [2] concerns the target T2, Muscarinic acetylcholine receptor M1 (Homo sapiens, UniProt P11229).
T2 sequence (P11229 whole entry): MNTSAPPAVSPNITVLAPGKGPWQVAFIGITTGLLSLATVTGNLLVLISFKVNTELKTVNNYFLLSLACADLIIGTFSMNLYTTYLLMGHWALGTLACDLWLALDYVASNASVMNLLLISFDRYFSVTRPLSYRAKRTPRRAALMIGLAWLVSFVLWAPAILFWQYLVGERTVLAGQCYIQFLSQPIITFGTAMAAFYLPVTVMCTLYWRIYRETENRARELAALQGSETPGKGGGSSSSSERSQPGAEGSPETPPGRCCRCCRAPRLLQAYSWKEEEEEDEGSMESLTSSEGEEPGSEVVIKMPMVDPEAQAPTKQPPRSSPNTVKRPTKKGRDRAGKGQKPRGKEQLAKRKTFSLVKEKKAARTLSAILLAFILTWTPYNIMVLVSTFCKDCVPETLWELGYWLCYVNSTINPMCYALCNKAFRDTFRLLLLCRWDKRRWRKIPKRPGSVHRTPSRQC
The format is functional.

Test [3] addresses Gamma-aminobutyric acid receptor subunit alpha-1 (Rattus norvegicus, UniProt P62813).
For the next test, the target named is Histamine H2 receptor (Homo sapiens, UniProt P25021). It is filed as functional, cell-based.
Histamine H2 receptor, sequence (P25021 whole entry): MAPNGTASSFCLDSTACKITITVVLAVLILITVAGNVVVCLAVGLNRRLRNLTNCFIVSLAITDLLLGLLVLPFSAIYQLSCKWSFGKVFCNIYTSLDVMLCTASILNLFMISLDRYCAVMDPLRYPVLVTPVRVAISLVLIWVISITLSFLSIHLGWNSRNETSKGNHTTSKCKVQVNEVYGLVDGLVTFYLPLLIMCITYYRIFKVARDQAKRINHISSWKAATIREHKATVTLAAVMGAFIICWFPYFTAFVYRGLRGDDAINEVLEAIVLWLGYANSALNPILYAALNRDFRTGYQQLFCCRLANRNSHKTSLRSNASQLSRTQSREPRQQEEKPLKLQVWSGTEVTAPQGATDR
The target of test [4] is 5-hydroxytryptamine receptor 2A (Homo sapiens, UniProt P28223). It is filed as functional, cell-based.
5-hydroxytryptamine receptor 2A, sequence (P28223 whole entry): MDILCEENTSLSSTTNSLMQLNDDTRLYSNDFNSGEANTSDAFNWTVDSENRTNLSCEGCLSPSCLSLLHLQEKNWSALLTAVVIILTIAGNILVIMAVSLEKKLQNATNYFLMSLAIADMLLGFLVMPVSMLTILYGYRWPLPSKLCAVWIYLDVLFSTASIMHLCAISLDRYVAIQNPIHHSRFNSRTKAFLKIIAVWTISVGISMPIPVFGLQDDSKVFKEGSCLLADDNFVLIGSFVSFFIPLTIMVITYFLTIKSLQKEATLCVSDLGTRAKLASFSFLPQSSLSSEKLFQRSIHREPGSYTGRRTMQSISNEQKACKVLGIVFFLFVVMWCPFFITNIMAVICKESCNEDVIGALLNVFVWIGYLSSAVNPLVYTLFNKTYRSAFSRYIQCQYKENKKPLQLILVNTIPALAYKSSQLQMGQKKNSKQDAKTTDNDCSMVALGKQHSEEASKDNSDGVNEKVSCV
In the next test the target is T3, Thromboxane A2 receptor (Homo sapiens, UniProt P21731).
T3 sequence (P21731 whole entry): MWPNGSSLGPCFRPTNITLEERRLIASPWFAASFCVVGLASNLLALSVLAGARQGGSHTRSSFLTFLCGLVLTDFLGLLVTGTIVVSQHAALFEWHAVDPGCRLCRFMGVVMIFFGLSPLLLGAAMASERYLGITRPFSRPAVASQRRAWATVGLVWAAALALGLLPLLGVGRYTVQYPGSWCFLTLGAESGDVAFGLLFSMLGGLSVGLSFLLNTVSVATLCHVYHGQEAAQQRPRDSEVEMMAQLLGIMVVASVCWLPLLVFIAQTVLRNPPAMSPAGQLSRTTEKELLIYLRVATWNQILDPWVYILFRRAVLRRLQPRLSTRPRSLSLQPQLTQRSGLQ

The target of the next test is Histamine H3 receptor (Homo sapiens, UniProt Q9Y5N1).
Histamine H3 receptor, sequence (Q9Y5N1 whole entry): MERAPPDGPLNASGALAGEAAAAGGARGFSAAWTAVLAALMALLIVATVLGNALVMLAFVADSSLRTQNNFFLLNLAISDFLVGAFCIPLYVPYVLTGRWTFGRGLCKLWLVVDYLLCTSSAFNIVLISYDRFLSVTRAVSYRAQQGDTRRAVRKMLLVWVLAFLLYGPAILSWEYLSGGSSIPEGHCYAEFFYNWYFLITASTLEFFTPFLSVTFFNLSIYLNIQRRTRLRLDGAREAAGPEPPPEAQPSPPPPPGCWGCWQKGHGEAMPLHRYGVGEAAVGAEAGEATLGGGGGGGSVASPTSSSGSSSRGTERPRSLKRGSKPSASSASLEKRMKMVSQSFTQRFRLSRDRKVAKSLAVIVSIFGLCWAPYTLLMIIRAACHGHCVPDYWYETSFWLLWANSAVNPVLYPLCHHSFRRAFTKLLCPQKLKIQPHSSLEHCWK
Test [5] concerns the target T4, 5-hydroxytryptamine receptor 1A (Homo sapiens, UniProt P08908).
T4 sequence (P08908 whole entry): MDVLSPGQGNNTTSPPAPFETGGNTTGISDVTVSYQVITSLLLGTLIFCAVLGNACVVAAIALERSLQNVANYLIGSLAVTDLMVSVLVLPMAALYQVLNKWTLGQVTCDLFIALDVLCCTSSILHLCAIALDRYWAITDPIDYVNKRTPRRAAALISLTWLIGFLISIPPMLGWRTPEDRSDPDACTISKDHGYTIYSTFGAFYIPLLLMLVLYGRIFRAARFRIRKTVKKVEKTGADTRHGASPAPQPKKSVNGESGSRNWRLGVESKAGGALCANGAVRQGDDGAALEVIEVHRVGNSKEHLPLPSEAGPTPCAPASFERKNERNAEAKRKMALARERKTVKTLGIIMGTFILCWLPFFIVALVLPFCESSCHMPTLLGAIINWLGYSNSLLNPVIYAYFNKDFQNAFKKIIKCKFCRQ
The format is functional, cell-based.

In the next test the target is Mu-type opioid receptor (Homo sapiens, UniProt P35372).
Mu-type opioid receptor, sequence (P35372 whole entry): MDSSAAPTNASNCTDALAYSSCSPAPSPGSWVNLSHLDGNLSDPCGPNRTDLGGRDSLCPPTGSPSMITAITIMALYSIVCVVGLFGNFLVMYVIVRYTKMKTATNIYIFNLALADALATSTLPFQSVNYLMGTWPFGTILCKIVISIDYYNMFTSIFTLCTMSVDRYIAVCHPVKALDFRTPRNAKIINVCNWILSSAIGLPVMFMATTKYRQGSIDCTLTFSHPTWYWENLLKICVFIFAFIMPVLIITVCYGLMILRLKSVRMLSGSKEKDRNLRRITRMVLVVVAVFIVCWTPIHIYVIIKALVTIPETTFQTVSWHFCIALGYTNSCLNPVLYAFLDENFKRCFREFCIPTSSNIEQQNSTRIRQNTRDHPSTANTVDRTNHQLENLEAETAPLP
Another test has as its target Acetylcholinesterase (Homo sapiens, UniProt P22303). It is filed as functional.
The target in test [6] is T5, Amine oxidase [flavin-containing] A (Homo sapiens, UniProt P21397).
T5 sequence (P21397 whole entry): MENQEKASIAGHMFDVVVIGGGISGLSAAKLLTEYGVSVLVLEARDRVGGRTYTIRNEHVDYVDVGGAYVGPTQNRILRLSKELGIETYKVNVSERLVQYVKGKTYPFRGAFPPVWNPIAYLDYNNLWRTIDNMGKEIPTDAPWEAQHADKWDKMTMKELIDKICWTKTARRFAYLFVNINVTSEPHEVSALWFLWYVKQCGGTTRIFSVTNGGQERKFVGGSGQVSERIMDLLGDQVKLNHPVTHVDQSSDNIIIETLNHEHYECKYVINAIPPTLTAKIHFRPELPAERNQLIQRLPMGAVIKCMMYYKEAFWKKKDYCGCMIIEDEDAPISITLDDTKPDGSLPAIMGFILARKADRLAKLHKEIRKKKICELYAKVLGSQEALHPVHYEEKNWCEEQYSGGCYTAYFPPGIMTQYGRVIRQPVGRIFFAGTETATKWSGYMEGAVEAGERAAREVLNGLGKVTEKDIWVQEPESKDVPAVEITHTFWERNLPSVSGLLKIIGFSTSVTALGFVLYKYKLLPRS
The format is functional.

Test [7] has as its target Prostaglandin G/H synthase 1 (Homo sapiens, UniProt P23219). It is filed as functional.
In test [8] the target is T1, Alpha-1A adrenergic receptor. The format is functional, cell-based. The source holds these as a separate data set.
The target is the same in test [9]. The format is functional, cell-based. This is another data set of the same source.
Further: assay procedure not described here.

Gamma-aminobutyric acid receptor subunit alpha-1, sequence (P62813 whole entry): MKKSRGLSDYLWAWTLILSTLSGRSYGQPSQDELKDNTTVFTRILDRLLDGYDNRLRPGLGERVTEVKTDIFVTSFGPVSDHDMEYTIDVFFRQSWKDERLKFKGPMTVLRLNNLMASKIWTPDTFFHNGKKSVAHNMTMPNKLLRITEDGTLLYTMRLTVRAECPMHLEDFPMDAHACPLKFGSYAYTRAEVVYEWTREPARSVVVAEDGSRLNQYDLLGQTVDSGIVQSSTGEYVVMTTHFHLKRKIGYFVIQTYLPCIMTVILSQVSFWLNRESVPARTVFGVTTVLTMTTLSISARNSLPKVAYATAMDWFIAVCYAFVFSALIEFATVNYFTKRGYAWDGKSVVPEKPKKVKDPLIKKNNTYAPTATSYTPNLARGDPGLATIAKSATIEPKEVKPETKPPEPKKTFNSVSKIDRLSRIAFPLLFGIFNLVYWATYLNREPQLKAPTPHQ
Acetylcholinesterase, sequence (P22303 whole entry): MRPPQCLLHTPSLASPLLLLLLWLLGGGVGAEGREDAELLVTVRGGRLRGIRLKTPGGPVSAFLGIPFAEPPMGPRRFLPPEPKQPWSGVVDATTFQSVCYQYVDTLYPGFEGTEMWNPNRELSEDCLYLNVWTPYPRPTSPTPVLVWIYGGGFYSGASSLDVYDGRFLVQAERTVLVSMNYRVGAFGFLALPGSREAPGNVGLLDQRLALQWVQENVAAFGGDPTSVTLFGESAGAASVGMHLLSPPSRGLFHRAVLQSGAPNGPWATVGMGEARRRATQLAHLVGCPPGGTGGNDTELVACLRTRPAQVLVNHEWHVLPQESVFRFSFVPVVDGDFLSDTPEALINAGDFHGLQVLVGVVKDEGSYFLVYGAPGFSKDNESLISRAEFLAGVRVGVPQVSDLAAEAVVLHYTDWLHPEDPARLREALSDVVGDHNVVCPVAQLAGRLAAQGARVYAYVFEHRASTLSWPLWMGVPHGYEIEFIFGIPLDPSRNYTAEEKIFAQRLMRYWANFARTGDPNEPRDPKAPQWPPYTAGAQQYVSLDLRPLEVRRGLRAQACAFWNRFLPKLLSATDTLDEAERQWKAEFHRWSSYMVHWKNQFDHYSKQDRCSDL
Prostaglandin G/H synthase 1, sequence (P23219 whole entry): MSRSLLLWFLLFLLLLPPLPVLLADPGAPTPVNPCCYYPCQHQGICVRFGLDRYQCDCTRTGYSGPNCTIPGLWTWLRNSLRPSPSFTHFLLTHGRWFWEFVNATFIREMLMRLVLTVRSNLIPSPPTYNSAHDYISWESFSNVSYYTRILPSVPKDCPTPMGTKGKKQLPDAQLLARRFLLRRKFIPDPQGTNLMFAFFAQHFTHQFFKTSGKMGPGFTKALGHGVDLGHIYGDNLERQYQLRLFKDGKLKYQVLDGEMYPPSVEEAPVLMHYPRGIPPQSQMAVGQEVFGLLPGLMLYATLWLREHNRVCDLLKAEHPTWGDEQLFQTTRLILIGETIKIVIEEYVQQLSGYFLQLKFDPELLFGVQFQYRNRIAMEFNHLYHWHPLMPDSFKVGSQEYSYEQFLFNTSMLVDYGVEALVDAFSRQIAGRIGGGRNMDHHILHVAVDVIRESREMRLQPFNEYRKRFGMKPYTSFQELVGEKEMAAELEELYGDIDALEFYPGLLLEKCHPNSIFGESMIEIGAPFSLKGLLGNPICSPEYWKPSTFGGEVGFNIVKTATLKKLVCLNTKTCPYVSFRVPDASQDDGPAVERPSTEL

One may read the AC50 as the concentration at which the activity in the assay is half-maximal. On to `CCCCN1C[C@H](O)[C@@H](O)[C@H](O)[C@H]1CO`, for which the AC50 (in test [1]; in [2]; in test [3]; on Histamine H2 receptor; in test [4]; on Thromboxane A2 receptor) was above 30 µM in each case. Further, the half-maximal activity concentration (AC50) at Histamine H3 receptor was above 30 µM.
For `CC(=O)NCCCS(=O)(=O)O` [ACAMPROSATE], the AC50 (in test [1]; in [2]; in test [3]; at Histamine H2 receptor; in test [5]; in test [4]) was above 30 µM in each case. The AC50 on Thromboxane A2 receptor and at Histamine H3 receptor was above 30 µM throughout.
On to `CCCSc1ccc2nc(NC(=O)OC)[nH]c2c1` [ALBENDAZOLE], for which the AC50 in [3] was above 10 µM; at Histamine H2 receptor it was above 10 µM; in test [5], above 10 µM; at Thromboxane A2 receptor, above 30 µM; at Mu-type opioid receptor, above 30 µM.
Regarding `COc1cc2nc(N(C)CCCNC(=O)C3CCCO3)nc(N)c2cc1OC` (stereo not given) [ALFUZOSIN], the AC50 (in [2]; in [3]; at Histamine H2 receptor; in test [4]; at Thromboxane A2 receptor; at Histamine H3 receptor) was above 30 µM throughout.
As to `CCc1oc2ccccc2c1C(=O)c1cc(I)c(O)c(I)c1` [BENZIODARONE], the AC50 was above 30 µM at Acetylcholinesterase, above 30 µM in [6] and 8.33 µM in test [7].
Turning to `CC1=C(C(=O)O)N2C(=O)[C@@H](NC(=O)[C@H](N)c3ccccc3)[C@H]2SC1` [CEPHALEXIN ANHYDROUS], the AC50 was above 30 µM in test [1]; above 10 µM in [3]; above 30 µM on Histamine H2 receptor; above 10 µM in test [5]; above 30 µM on Thromboxane A2 receptor; above 10 µM at Histamine H3 receptor.
With `COCc1c(C(C)C)nc(C(C)C)c(/C=C/[C@@H](O)C[C@@H](O)CC(=O)O)c1-c1ccc(F)cc1` [CERIVASTATIN], the concentration at half-maximal activity (AC50) on Acetylcholinesterase was above 30 µM; in test [8], above 30 µM; in test [9] it was 25.2 µM; in test [6] it was above 30 µM; in [7], above 30 µM.
For `C[N+](C)(C)CCO` [CHOLINE], the AC50 (at Acetylcholinesterase; in test [8]; in test [9]; in test [6]; in test [7]) was above 30 µM in each case.
For `CN(C)/N=N/c1[nH]cnc1C(N)=O` [DACARBAZINE], the AC50 in test [3] is above 10 µM; on Histamine H2 receptor, above 10 µM; in test [5], above 10 µM; on Thromboxane A2 receptor, above 10 µM; at Mu-type opioid receptor, above 30 µM.
Consider `C[C@]12CC[C@@H]3c4ccc(O)cc4CC[C@H]3[C@@H]1C[C@@H](O)[C@@H]2O` [ESTRIOL], for which the AC50 is above 30 µM on Acetylcholinesterase; above 30 µM in [8]; above 30 µM in test [9]; above 30 µM in test [6]; 12 µM in [7].
Regarding `CCC1=C(C)CN(C(=O)NCCc2ccc(S(=O)(=O)NC(=O)N[C@H]3CC[C@H](C)CC3)cc2)C1=O` [GLIMEPIRIDE], the AC50 (on Acetylcholinesterase; in test [8]; in test [9]; in test [6]; in [7]) was above 30 µM throughout.
On to `C[N+]1(C)CCC(OC(=O)C(O)(c2ccccc2)C2CCCC2)C1` (stereo not given) [GLYCOPYRRONIUM BROMIDE], for which the AC50 on Thromboxane A2 receptor was above 30 µM.
With `O=P1(NCCCl)OCCCN1CCCl` (stereo not given) [IFOSFAMIDE], the AC50 (in test [3]; at Histamine H2 receptor; in test [5]; on Thromboxane A2 receptor; on Histamine H3 receptor) was above 30 µM each time.
With `CCC(C)n1ncn(-c2ccc(N3CCN(c4ccc(OCC5COC(Cn6cncn6)(c6ccc(Cl)cc6Cl)O5)cc4)CC3)cc2)c1=O` (stereo not given) [ITRACONAZOLE], the AC50 is above 30 µM in [1]; above 30 µM in test [3]; above 10 µM on Histamine H2 receptor; above 30 µM in test [5]; above 30 µM on Thromboxane A2 receptor; above 10 µM on Mu-type opioid receptor. Further, at Histamine H3 receptor, the AC50 is above 30 µM.
For the compound `Clc1ccc(C(c2ccccc2Cl)C(Cl)Cl)cc1` (stereo not given) [MITOTANE], the AC50 in test [3] is above 10 µM; on Histamine H2 receptor it was above 10 µM; in test [5], above 10 µM; at Thromboxane A2 receptor, above 10 µM; at Mu-type opioid receptor, above 30 µM.
Regarding `CC(C)(S)[C@@H](N)C(=O)O` [PENICILLAMINE], the AC50 (on Acetylcholinesterase; in test [8]; in test [9]; in [6]) was above 30 µM each time.
Turning to `COc1cc(NC(C)CCCN)c2ncccc2c1` (stereo not given) [PRIMAQUINE], the figures for the half-maximal activity concentration (AC50) (in test [7]; on Thromboxane A2 receptor) were 3.95 µM and above 30 µM, respectively.
For `COc1ccccc1OCC(O)CN1CCN(CC(=O)Nc2c(C)cccc2C)CC1` (stereo not given) [RANOLAZINE], the AC50 (in test [1]; in test [2]; in [3]; on Histamine H2 receptor; in test [4]; at Thromboxane A2 receptor) was above 30 µM throughout. Further, the AC50 at Histamine H3 receptor was above 30 µM.
Consider `Clc1ccc2nsnc2c1NC1=NCCN1` [TIZANIDINE], for which the AC50 in test [1] is 0.0098 µM; in test [2], above 10 µM; in test [3], above 10 µM; on Histamine H2 receptor it was 0.93 µM; in [5], above 10 µM; on Thromboxane A2 receptor, above 30 µM. The AC50 was above 30 µM at Mu-type opioid receptor and above 10 µM at Histamine H3 receptor.
For `O=C(O[C@H]1C[C@H]2CC[C@@H](C1)[N+]21CCCC1)C(O)(c1ccccc1)c1ccccc1` [TROSPIUM], the AC50 was above 30 µM in test [1]; 0.028 µM in test [2]; above 30 µM in test [3]; above 30 µM at Histamine H2 receptor; above 30 µM in test [5]; above 30 µM in test [4]. For the same compound, the AC50 at Thromboxane A2 receptor and at Histamine H3 receptor was above 30 µM in each case.
On to `CCCCCCOc1nsnc1C1=CCCN(C)C1` [XANOMELINE], for which the AC50 at Acetylcholinesterase was 17.2 µM; in [8], 13.2 µM; in test [7], above 30 µM.

Source of the values: ChEMBL document CHEMBL5291721, “A preclinical secondary pharmacology resource illuminates target-adverse drug reaction associations of marketed drugs” (Nat Commun, 2023).
